This is an account of results in paper PMC7503500, “A Structure-Activity Relationship Comparison of Imidazodiazepines Binding at Kappa, Mu, and Delta Opioid Receptors and the GABAA Receptor” (Molecules, 2020).

Experiment [1] deals with synaptic benzodiazepine-sensitive receptors (BZR), GABAAR. The experiment in a line: 3H-flunitrazepam binding, rat brain homogenate. To be noted: for BZR % (percent inhibition): at 10,000 nM; for Ki: read-out: BZR (Ki).
The target of another experiment is δ opioid receptor (DOR) (Homo sapiens, UniProt P41143). The experiment in a line: Radioligand competition binding, DOR ([3H]-DADLE), HEK293 cell homogenates. The conditions noted are these: for inhibition at 10 µM: read-out: DOR % (percent inhibition), at 10,000 nM. For orientation: In a radioligand displacement assay an active substance lowers the binding of a labelled ligand.

The target of another experiment is µ opioid receptor (MOR) (Homo sapiens, UniProt P35372). The experiment in a line: Radioligand competition binding, MOR ([3H]-DAMGO), HEK293 cell homogenates. The conditions noted are these: [3H]-DAMGO; for inhibition at 10 µM: read-out: MOR % (percent inhibition), at 10,000 nM.
The next experiment concerns the target κ opioid receptor (KOR) (Homo sapiens, UniProt P41145). The experiment in a line: Radioligand competition binding, KOR ([3H]-U69593), HEK293 cell homogenates. The conditions noted are these: for inhibition at 10 µM: read-out: KOR % (percent inhibition), at 10,000 nM.

Read-outs that look alike come from different tables or passages of the source.

Consider `C#Cc1ccc2c(c1)C(c1ccccc1F)=N[C@H](C)c1c(C(=O)OC)ncn1-2` [MP-III-004], for which the “BZR % (percent inhibition)” value in experiment [1] amounted to 78%. Besides, the Ki – broadly, the equilibrium dissociation constant of an inhibitor or competing ligand from its target – in experiment [1] was 445 nM; on κ opioid receptor (KOR), 599 nM. For the same molecule, the values for the inhibition at 10 µM on δ opioid receptor (DOR), at µ opioid receptor (MOR) and at κ opioid receptor (KOR) ([3H]-U69593) were 24%, 0% and 76%, respectively.

As for `C#Cc1ccc2c(c1)C(c1ccccc1F)=N[C@@H](C)c1c(C(N)=O)ncn1-2` [MP-III-018.B], in experiment [1], the “BZR % (percent inhibition)” value was determined as 97%. Moreover, the Ki in experiment [1] is 17 nM; at κ opioid receptor (KOR) it was 2780 nM. The inhibition (usually how much of the control response was suppressed) at 10 µM on δ opioid receptor (DOR) amounted to 10%; on µ opioid receptor (MOR) it was 2%; on κ opioid receptor (KOR) ([3H]-U69593) it was 51%.

As for `C#Cc1ccc2c(c1)C(c1ccccc1F)=N[C@H](C)c1c(C(N)=O)ncn1-2` [MP-III-019.B], the “BZR % (percent inhibition)” value in experiment [1] is given as 94%. The Ki turned out to be 54 nM in experiment [1] and 1530 nM on κ opioid receptor (KOR). Further, the figures for the inhibition at 10 µM at δ opioid receptor (DOR), on µ opioid receptor (MOR) and at κ opioid receptor (KOR) ([3H]-U69593) were 0%, 2% and 62%, respectively.

For the molecule `C#Cc1ccc2c(c1)C(c1ccccc1F)=N[C@@H](C)c1c(C(=O)OC)ncn1-2` [MP-III-021], the “BZR % (percent inhibition)” value in experiment [1] was 88%. For the same molecule, the Ki in experiment [1] stood at 219 nM; on κ opioid receptor (KOR) it was 122 nM. The results for the inhibition at 10 µM on δ opioid receptor (DOR), on µ opioid receptor (MOR) and at κ opioid receptor (KOR) ([3H]-U69593) were 22%, 0% and 93%, respectively.

With `C#Cc1ccc2c(c1)C(c1ccccc1F)=N[C@H](C)c1c(C(=O)NC)ncn1-2` [MP-III-022], the “BZR % (percent inhibition)” value in experiment [1] was determined as 95%. In addition, the Ki in experiment [1] was determined as 83 nM. Further, the figures for the inhibition at 10 µM on δ opioid receptor (DOR), on µ opioid receptor (MOR) and on κ opioid receptor (KOR) ([3H]-U69593) were 22%, 3% and 80%, respectively.

For the molecule `C#Cc1ccc2c(c1)C(c1ccccc1F)=N[C@@H](C)c1c(C(=O)NC)ncn1-2` [MP-III-023], in experiment [1], the “BZR % (percent inhibition)” value is recorded as 97%. The Ki in experiment [1] came out at 37 nM; on κ opioid receptor (KOR), 119 nM. In addition, the inhibition at 10 µM at δ opioid receptor (DOR) is 16%; at µ opioid receptor (MOR), 0%; on κ opioid receptor (KOR) ([3H]-U69593) it was 91%.

Turning to `C#Cc1ccc2c(c1)C(c1ccccn1)=NCc1c(C(=O)OC)ncn1-2` [MP-III-024], the “BZR % (percent inhibition)” value in experiment [1] was 81%. Besides, in experiment [1], the Ki worked out at 277 nM. The inhibition at 10 µM on δ opioid receptor (DOR) came to 24%; on µ opioid receptor (MOR) it was 0%; at κ opioid receptor (KOR) ([3H]-U69593), 43%.

As to `COC(=O)c1ncn2c1[C@@H](C)N=C(c1ccccc1F)c1cc(Br)ccc1-2` [MP-III-058], the “BZR % (percent inhibition)” value in experiment [1] worked out at 86%. For the same molecule, the Ki in experiment [1] amounted to 290 nM; on κ opioid receptor (KOR), 237 nM. For the same molecule, the inhibition at 10 µM on δ opioid receptor (DOR) turned out to be 4%; on µ opioid receptor (MOR), 0%; on κ opioid receptor (KOR) ([3H]-U69593), 84%.

As for `C#Cc1ccc2c(c1)C(c1ccccn1)=NCc1c(-c3nc(CC)no3)ncn1-2` [MP-III-080], the “BZR % (percent inhibition)” value in experiment [1] is listed as 88%. Besides, the Ki in experiment [1] turned out to be 303 nM. Also, the inhibition at 10 µM at δ opioid receptor (DOR) was found to be 0%; at µ opioid receptor (MOR) it was 0%; at κ opioid receptor (KOR) ([3H]-U69593), 47%.

With `C#Cc1ccc2c(c1)C(c1ccccn1)=NCc1c(-c3nc(C)no3)ncn1-2` [MP-III-085], the “BZR % (percent inhibition)” value in experiment [1] is on record as 82%. For the same molecule, the inhibition constant Ki in experiment [1] worked out at 357 nM. Also, the figures for the inhibition at 10 µM at δ opioid receptor (DOR), on µ opioid receptor (MOR) and at κ opioid receptor (KOR) ([3H]-U69593) were 0%, 0% and 40%, respectively.

For the molecule `C#Cc1ccc2c(c1)C(c1ccccc1F)=N[C@H](C)c1c(-c3nc(C)no3)ncn1-2` [MP-IV-004], in experiment [1], the “BZR % (percent inhibition)” value is 63% and the Ki is 1080 nM. Moreover, the “DOR % (percent inhibition)” value at δ opioid receptor (DOR) (at 10,000 nM) came to 10%. In addition, at µ opioid receptor (MOR) (at 10,000 nM), the “MOR % (percent inhibition)” value stood at 7%. For the same molecule, at κ opioid receptor (KOR) (at 10,000 nM, [3H]-U69593), the “KOR % (percent inhibition)” value is on record as 86%. Also, the Ki at κ opioid receptor (KOR) (read-out: KOR (Ki), [3H]-U69593, HEK293 homogenates) stood at 444 nM.
